From patent publication US9446061B2, “Composition containing antibiotics and lysophosphatidylcholine for boosting immunity or treatment of bacterial infections” (priority 2011, dated 2016)

Tested on: CPA-CLP sepsis mouse model
Assay: Effects of LPC concentrations on mortalities/survivabilities in CPA-CLP sepsis mouse model (SEP008); s.c. 4 times 12-hr intervals from 6 hrs after CLP
Assay type: in vivo, ICR mice
Procedure: CPA is well known as an immunosuppressive agent. […] Then, the abdomen was closed following the general procedure.
Then, body weight and mortality changes were observed.
In the Sham and CLP control groups, 10 ml/kg of only 5% human serum albumin was subcutaneously dosed at the same intervals.

Question: Which minimal effective dose (CPA-CLP model) does the source give for Lysophosphatidylcholine [LPC] here?
Answer: about 1 mg/kg

Question: What about the optimal effective dose (CPA-CLP model) of the same substance?
Answer: 10 mg/kg

Question: And the Mortalities (LPC 1 mpk, 1st CPA treat)?
Answer: 0/10

Question: And the survivabilities (LPC 1 mpk, 1st CPA treat)?
Answer: 100%

Question: And the Mortalities (LPC 1 mpk, 2nd CPA treat)?
Answer: 0/10

Question: What about the survivabilities (LPC 1 mpk, 2nd CPA treat) of the same substance?
Answer: 100%

Question: What about the Mortalities (LPC 1 mpk, At CLP (day 0)) of the same substance?
Answer: 0/10

Question: What about the survivabilities (LPC 1 mpk, At CLP (day 0)) of the same substance?
Answer: 100%

Question: What about the Mortalities (LPC 1 mpk, Day 1) of the same substance?
Answer: 4/10

Question: What about the survivabilities (LPC 1 mpk, Day 1) of the same substance?
Answer: 60%

Question: What about the Mortalities (LPC 1 mpk, Day 2) of the same substance?
Answer: 2/6

Question: And the survivabilities (LPC 1 mpk, Day 2)?
Answer: 40%

Question: And the Mortalities (LPC 1 mpk, Day 3)?
Answer: 2/4

Question: And the survivabilities (LPC 1 mpk, Day 3)?
Answer: 20%

Question: What about the Mortalities (LPC 1 mpk, Day 4) of the same substance?
Answer: 2/2

Question: And the survivabilities (LPC 1 mpk, Day 4)?
Answer: 0%

Question: And the Mortalities (LPC 1 mpk, Day 5)?
Answer: 0/0

Question: What about the survivabilities (LPC 1 mpk, Day 5) of the same substance?
Answer: 0%

Question: What about the Mortalities (LPC 1 mpk, Day 6) of the same substance?
Answer: 0/0

Question: What about the survivabilities (LPC 1 mpk, Day 6) of the same substance?
Answer: 0%

Question: And the Mortalities (LPC 1 mpk, Day 7)?
Answer: 0/0

Question: And the survivabilities (LPC 1 mpk, Day 7)?
Answer: 0%

Question: And the Mortalities (LPC 1 mpk, Total)?
Answer: 10/10

Question: And the survivabilities (LPC 1 mpk, Total)?
Answer: 0%

Question: And the Mortalities (LPC 2.5 mpk, 1st CPA treat)?
Answer: 0/10

Question: What about the survivabilities (LPC 2.5 mpk, 1st CPA treat) of the same substance?
Answer: 100%

Question: And the Mortalities (LPC 2.5 mpk, 2nd CPA treat)?
Answer: 0/10

Question: What about the survivabilities (LPC 2.5 mpk, 2nd CPA treat) of the same substance?
Answer: 100%

Question: And the Mortalities (LPC 2.5 mpk, At CLP (day 0))?
Answer: 0/10

Question: What about the survivabilities (LPC 2.5 mpk, At CLP (day 0)) of the same substance?
Answer: 100%

Question: And the Mortalities (LPC 2.5 mpk, Day 1)?
Answer: 2/10

Question: And the survivabilities (LPC 2.5 mpk, Day 1)?
Answer: 80%

Question: What about the Mortalities (LPC 2.5 mpk, Day 2) of the same substance?
Answer: 2/8

Question: What about the survivabilities (LPC 2.5 mpk, Day 2) of the same substance?
Answer: 60%

Question: And the Mortalities (LPC 2.5 mpk, Day 3)?
Answer: 3/6

Question: And the survivabilities (LPC 2.5 mpk, Day 3)?
Answer: 30%

Question: And the Mortalities (LPC 2.5 mpk, Day 4)?
Answer: 2/3

Question: What about the survivabilities (LPC 2.5 mpk, Day 4) of the same substance?
Answer: 10%

Question: And the Mortalities (LPC 2.5 mpk, Day 5)?
Answer: 1/1

Question: And the survivabilities (LPC 2.5 mpk, Day 5)?
Answer: 0%

Question: What about the Mortalities (LPC 2.5 mpk, Day 6) of the same substance?
Answer: 0/0

Question: What about the survivabilities (LPC 2.5 mpk, Day 6) of the same substance?
Answer: 0%

Question: And the Mortalities (LPC 2.5 mpk, Day 7)?
Answer: 0/0

Question: And the survivabilities (LPC 2.5 mpk, Day 7)?
Answer: 0%

Question: What about the Mortalities (LPC 2.5 mpk, Total) of the same substance?
Answer: 10/10

Question: And the survivabilities (LPC 2.5 mpk, Total)?
Answer: 0%

Question: What about the Mortalities (LPC 5 mpk, 1st CPA treat) of the same substance?
Answer: 0/10

Question: What about the survivabilities (LPC 5 mpk, 1st CPA treat) of the same substance?
Answer: 100%

Question: What about the Mortalities (LPC 5 mpk, 2nd CPA treat) of the same substance?
Answer: 0/10

Question: And the survivabilities (LPC 5 mpk, 2nd CPA treat)?
Answer: 100%

Question: And the Mortalities (LPC 5 mpk, At CLP (day 0))?
Answer: 0/10

Question: What about the survivabilities (LPC 5 mpk, At CLP (day 0)) of the same substance?
Answer: 100%

Question: What about the Mortalities (LPC 5 mpk, Day 1) of the same substance?
Answer: 4/10

Question: And the survivabilities (LPC 5 mpk, Day 1)?
Answer: 60%

Question: And the Mortalities (LPC 5 mpk, Day 2)?
Answer: 1/6

Question: What about the survivabilities (LPC 5 mpk, Day 2) of the same substance?
Answer: 50%

Question: And the Mortalities (LPC 5 mpk, Day 3)?
Answer: 1/5

Question: What about the survivabilities (LPC 5 mpk, Day 3) of the same substance?
Answer: 40%

Question: What about the Mortalities (LPC 5 mpk, Day 4) of the same substance?
Answer: 1/4

Question: And the survivabilities (LPC 5 mpk, Day 4)?
Answer: 30%

Question: What about the Mortalities (LPC 5 mpk, Day 5) of the same substance?
Answer: 0/3

Question: What about the survivabilities (LPC 5 mpk, Day 5) of the same substance?
Answer: 30%

Question: And the Mortalities (LPC 5 mpk, Day 6)?
Answer: 2/3

Question: And the survivabilities (LPC 5 mpk, Day 6)?
Answer: 10%

Question: What about the Mortalities (LPC 5 mpk, Day 7) of the same substance?
Answer: 1/1

Question: What about the survivabilities (LPC 5 mpk, Day 7) of the same substance?
Answer: 0%

Question: And the Mortalities (LPC 5 mpk, Total)?
Answer: 10/10

Question: And the survivabilities (LPC 5 mpk, Total)?
Answer: 0%

Question: What about the Mortalities (LPC 10 mpk, 1st CPA treat) of the same substance?
Answer: 0/10

Question: What about the survivabilities (LPC 10 mpk, 1st CPA treat) of the same substance?
Answer: 100%

Question: And the Mortalities (LPC 10 mpk, 2nd CPA treat)?
Answer: 0/10

Question: And the survivabilities (LPC 10 mpk, 2nd CPA treat)?
Answer: 100%

Question: And the Mortalities (LPC 10 mpk, At CLP (day 0))?
Answer: 0/10

Question: What about the survivabilities (LPC 10 mpk, At CLP (day 0)) of the same substance?
Answer: 100%

Question: What about the Mortalities (LPC 10 mpk, Day 1) of the same substance?
Answer: 1/10

Question: What about the survivabilities (LPC 10 mpk, Day 1) of the same substance?
Answer: 90%

Question: And the Mortalities (LPC 10 mpk, Day 2)?
Answer: 2/9

Question: What about the survivabilities (LPC 10 mpk, Day 2) of the same substance?
Answer: 70%

Question: What about the Mortalities (LPC 10 mpk, Day 3) of the same substance?
Answer: 1/7

Question: And the survivabilities (LPC 10 mpk, Day 3)?
Answer: 60%

Question: What about the Mortalities (LPC 10 mpk, Day 4) of the same substance?
Answer: 1/6

Question: What about the survivabilities (LPC 10 mpk, Day 4) of the same substance?
Answer: 50%

Question: What about the Mortalities (LPC 10 mpk, Day 5) of the same substance?
Answer: 1/5

Question: And the survivabilities (LPC 10 mpk, Day 5)?
Answer: 40%

Question: And the Mortalities (LPC 10 mpk, Day 6)?
Answer: 2/4

Question: What about the survivabilities (LPC 10 mpk, Day 6) of the same substance?
Answer: 20%

Question: And the Mortalities (LPC 10 mpk, Day 7)?
Answer: 2/2

Question: What about the survivabilities (LPC 10 mpk, Day 7) of the same substance?
Answer: 0%

Question: And the Mortalities (LPC 10 mpk, Total)?
Answer: 10/10

Question: What about the survivabilities (LPC 10 mpk, Total) of the same substance?
Answer: 0%

Question: And the Mortalities (LPC 20 mpk, 1st CPA treat)?
Answer: 0/10

Question: And the survivabilities (LPC 20 mpk, 1st CPA treat)?
Answer: 100%

Question: What about the Mortalities (LPC 20 mpk, 2nd CPA treat) of the same substance?
Answer: 0/10

Question: And the survivabilities (LPC 20 mpk, 2nd CPA treat)?
Answer: 100%

Question: What about the Mortalities (LPC 20 mpk, At CLP (day 0)) of the same substance?
Answer: 0/10

Question: What about the survivabilities (LPC 20 mpk, At CLP (day 0)) of the same substance?
Answer: 100%

Question: And the Mortalities (LPC 20 mpk, Day 1)?
Answer: 1/10

Question: What about the survivabilities (LPC 20 mpk, Day 1) of the same substance?
Answer: 90%

Question: And the Mortalities (LPC 20 mpk, Day 2)?
Answer: 1/9

Question: And the survivabilities (LPC 20 mpk, Day 2)?
Answer: 80%

Question: And the Mortalities (LPC 20 mpk, Day 3)?
Answer: 2/8

Question: And the survivabilities (LPC 20 mpk, Day 3)?
Answer: 60%

Question: What about the Mortalities (LPC 20 mpk, Day 4) of the same substance?
Answer: 2/6

Question: What about the survivabilities (LPC 20 mpk, Day 4) of the same substance?
Answer: 40%

Question: And the Mortalities (LPC 20 mpk, Day 5)?
Answer: 2/4

Question: What about the survivabilities (LPC 20 mpk, Day 5) of the same substance?
Answer: 20%

Question: What about the Mortalities (LPC 20 mpk, Day 6) of the same substance?
Answer: 0/2

Question: And the survivabilities (LPC 20 mpk, Day 6)?
Answer: 20%

Question: What about the Mortalities (LPC 20 mpk, Day 7) of the same substance?
Answer: 2/2

Question: And the survivabilities (LPC 20 mpk, Day 7)?
Answer: 0%

Question: And the Mortalities (LPC 20 mpk, Total)?
Answer: 10/10

Question: What about the survivabilities (LPC 20 mpk, Total) of the same substance?
Answer: 0%

Question: What about the survival time (all the five doses of LPC in CPA-CLP mice) of the same substance?
Answer: significantly increased
